Test results published in ChEMBL document CHEMBL1909046, “DrugMatrix in vitro pharmacology data”.

How the values were obtained:
[1] = DRUGMATRIX: Imidazoline I2, Central radioligand binding (ligand: [3H] Idazoxan); format: cell membranes, Rattus norvegicus, Wistar, Cerebral cortex, Membrane; conditions: Not Active = under 50% inhibition at 10 µM
D(3) dopamine receptor = D(3) dopamine receptor (Homo sapiens, UniProt P35462); test: DRUGMATRIX: Dopamine D3 radioligand binding (ligand: [3H] Spiperone); format: cell membranes, CHO, Membrane; conditions: cho
Chain of D(3) dopamine receptor (P35462 whole entry): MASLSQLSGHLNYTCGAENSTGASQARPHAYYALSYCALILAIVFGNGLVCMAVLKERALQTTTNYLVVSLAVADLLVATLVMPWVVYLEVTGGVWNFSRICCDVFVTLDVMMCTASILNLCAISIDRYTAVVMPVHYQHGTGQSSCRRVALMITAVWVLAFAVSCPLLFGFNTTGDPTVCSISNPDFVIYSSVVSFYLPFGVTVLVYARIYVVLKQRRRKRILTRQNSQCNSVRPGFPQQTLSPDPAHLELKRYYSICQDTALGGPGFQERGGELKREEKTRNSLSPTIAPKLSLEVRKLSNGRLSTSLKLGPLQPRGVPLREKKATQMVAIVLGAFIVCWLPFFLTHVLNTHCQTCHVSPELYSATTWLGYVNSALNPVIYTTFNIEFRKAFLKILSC

Nitric oxide synthase 1 = Nitric oxide synthase 1 (Rattus norvegicus, UniProt P29476); format: tissue-based, Cerebellum; note: in other assays of this panel Not Active means under 50% inhibition at 10 µM
Chain of Nitric oxide synthase 1 (P29476 whole entry): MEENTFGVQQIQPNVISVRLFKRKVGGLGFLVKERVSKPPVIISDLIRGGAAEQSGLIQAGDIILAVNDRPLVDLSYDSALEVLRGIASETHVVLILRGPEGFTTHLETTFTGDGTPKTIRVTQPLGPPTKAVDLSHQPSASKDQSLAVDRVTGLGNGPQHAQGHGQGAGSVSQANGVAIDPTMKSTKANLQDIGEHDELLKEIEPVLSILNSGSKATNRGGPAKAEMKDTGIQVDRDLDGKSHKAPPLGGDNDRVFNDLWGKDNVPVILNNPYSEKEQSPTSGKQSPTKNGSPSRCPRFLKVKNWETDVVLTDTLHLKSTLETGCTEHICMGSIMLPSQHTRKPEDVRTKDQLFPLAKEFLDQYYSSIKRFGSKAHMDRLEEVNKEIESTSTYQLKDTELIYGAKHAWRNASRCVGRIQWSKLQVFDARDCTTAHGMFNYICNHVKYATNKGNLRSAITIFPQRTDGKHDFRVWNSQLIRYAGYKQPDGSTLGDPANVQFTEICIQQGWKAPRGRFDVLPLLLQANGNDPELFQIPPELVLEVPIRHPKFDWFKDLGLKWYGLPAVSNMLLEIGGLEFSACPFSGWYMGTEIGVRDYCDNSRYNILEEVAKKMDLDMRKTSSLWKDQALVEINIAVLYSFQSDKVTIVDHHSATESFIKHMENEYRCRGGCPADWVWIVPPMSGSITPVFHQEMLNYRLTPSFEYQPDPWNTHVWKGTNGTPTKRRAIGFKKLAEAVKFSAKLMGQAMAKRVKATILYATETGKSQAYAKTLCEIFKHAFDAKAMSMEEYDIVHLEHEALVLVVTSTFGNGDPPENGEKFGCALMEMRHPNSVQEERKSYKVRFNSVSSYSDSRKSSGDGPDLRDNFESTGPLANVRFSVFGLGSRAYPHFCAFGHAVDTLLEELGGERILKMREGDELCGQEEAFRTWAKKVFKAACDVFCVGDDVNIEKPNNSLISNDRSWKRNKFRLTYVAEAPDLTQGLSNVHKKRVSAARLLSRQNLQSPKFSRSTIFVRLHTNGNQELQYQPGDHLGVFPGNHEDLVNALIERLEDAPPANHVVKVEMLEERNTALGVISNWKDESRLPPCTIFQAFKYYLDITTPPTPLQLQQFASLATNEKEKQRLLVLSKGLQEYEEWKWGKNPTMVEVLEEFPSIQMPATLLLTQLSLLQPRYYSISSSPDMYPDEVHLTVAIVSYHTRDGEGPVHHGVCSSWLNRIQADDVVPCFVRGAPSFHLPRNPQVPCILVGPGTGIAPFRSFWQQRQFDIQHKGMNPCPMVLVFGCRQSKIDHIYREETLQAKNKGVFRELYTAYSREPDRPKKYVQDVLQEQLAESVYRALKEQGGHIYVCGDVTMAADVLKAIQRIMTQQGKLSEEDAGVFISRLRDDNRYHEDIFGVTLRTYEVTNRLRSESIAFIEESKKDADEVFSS

Neutrophil elastase = molecular target: T1, Neutrophil elastase (Homo sapiens, UniProt P08246); format: tissue-based;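 note: inhibition of neutrophil elastase enzyme activity, measured with a p-nitroanilide-linked peptide substrate; in other assays of this panel Not Active means under 50% inhibition at 10 µM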
T1 sequence (P08246 whole entry): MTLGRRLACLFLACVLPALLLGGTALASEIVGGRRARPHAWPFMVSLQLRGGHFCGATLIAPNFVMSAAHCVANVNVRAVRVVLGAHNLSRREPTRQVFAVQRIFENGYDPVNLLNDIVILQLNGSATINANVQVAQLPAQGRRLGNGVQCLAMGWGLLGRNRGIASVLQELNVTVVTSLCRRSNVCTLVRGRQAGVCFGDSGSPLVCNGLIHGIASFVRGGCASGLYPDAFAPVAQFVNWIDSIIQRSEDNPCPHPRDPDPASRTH

[2] = molecular target: T2, Nitric oxide synthase, inducible (Mus musculus, UniProt P29477); parameters: species or system Escherichia coli;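 note: inhibition of iNOS enzyme activity measured with L-arginine as substrate; in other assays of this panel Not Active means under 50% inhibition at 10 µM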
T2 sequence (P29477 whole entry): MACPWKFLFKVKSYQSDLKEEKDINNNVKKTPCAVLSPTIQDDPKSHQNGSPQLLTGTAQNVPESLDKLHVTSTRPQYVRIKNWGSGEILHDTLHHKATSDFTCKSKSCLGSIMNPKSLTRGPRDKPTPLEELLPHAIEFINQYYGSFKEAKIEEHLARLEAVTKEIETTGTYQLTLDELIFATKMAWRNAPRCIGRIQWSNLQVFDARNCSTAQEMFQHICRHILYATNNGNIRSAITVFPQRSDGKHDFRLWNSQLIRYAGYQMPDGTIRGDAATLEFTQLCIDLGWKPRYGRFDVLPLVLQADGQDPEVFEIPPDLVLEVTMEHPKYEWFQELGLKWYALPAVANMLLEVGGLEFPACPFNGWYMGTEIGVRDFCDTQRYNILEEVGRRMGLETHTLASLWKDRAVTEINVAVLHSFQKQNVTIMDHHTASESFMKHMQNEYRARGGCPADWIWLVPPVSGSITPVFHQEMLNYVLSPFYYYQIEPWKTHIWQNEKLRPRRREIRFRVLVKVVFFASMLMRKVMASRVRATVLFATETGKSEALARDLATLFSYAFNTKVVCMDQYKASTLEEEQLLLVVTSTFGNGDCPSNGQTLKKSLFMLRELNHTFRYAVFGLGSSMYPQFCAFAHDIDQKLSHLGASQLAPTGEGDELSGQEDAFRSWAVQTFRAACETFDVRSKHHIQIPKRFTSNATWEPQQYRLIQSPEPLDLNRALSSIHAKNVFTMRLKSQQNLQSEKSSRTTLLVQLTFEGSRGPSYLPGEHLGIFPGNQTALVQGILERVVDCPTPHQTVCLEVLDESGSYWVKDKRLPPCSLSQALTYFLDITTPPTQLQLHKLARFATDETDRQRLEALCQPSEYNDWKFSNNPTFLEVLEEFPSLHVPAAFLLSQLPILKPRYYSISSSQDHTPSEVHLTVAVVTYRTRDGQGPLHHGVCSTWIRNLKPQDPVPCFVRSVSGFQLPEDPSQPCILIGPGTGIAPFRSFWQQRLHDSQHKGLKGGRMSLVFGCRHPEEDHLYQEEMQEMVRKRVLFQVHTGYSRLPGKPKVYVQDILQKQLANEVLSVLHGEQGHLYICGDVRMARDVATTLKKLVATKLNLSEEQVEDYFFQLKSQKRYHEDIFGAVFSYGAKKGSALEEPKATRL

Melanocortin receptor 5 = Melanocortin receptor 5 (Homo sapiens, UniProt P33032); format: cell membranes, HEK293, Membrane; conditions: hek293; note: in other assays of this panel Not Active means under 50% inhibition at 10 µM
Chain of Melanocortin receptor 5 (P33032 whole entry): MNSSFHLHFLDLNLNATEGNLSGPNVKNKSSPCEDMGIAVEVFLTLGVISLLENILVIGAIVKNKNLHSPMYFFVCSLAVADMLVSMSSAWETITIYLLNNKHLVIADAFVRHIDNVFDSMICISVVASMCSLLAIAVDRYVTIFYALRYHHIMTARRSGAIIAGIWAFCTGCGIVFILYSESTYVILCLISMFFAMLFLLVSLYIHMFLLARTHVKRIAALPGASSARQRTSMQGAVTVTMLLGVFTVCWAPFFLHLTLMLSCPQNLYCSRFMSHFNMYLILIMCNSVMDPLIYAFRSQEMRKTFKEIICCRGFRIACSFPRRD

[3] = DRUGMATRIX: Calcium Channel Type L, Benzothiazepine radioligand binding (ligand: [3H] Diltiazem); format: cell membranes, Rattus norvegicus, Wistar, Brain, Membrane; conditions: Not Active = under 50% inhibition at 10 µM
Substance-P receptor = Substance-P receptor (Homo sapiens, UniProt P25103); format: cell membranes, CHO, Membrane; conditions: cho; note: in other assays of this panel Not Active means under 50% inhibition at 10 µM
Chain of Substance-P receptor (P25103 whole entry): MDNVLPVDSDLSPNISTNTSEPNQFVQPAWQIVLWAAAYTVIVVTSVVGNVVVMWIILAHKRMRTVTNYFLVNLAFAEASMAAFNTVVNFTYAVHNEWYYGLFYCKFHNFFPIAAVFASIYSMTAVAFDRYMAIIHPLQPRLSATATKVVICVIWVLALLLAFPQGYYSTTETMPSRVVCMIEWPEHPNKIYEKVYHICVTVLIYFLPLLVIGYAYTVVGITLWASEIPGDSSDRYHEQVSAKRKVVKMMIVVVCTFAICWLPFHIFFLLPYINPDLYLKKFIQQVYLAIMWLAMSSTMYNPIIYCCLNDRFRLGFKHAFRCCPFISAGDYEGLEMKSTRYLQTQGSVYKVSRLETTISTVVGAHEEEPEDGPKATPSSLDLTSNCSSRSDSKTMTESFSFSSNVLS

Compound	IC50 [1]	Ki [1]	IC50 (D(3) dopamine receptor)	IC50 (Nitric oxide synthase 1)	IC50 (Neutrophil elastase)	IC50 [2]	IC50 (Melanocortin receptor 5)	IC50 [3]	Ki [3]	IC50 (Substance-P receptor)	IC50 ([1]; read-out: IC50) [µM]	Ki ([1]; read-out: Ki) [µM]	IC50 (D(3) dopamine receptor; read-out: IC50) [µM]	Ki (D(3) dopamine receptor; read-out: Ki) [µM]	Ki (Nitric oxide synthase 1)	Ki (Neutrophil elastase)	Ki [2]	Ki (Melanocortin receptor 5)	Ki (Substance-P receptor)
COc1ccc(C(CN(C)C)C2(O)CCCCC2)cc1 (stereo unspecified) [VENLAFAXINE]	Not Active	Not Active	Not Active	Not Active	Not Active	Not Active	Not Active	Not Active	Not Active	Not Active									
COC(=O)[C@@H]1[C@H]2C[C@H]3c4[nH]c5ccccc5c4CCN3C[C@@H]2CC[C@@H]1O [YOHIMBINE]			Not Active	Not Active	Not Active	Not Active	Not Active	Not Active	Not Active	Not Active	0.157	0.105							
IVERMECTIN	Not Active	Not Active		Not Active	Not Active	Not Active	Not Active	Not Active	Not Active	Not Active			2.21	0.75	Not Active	Not Active	Not Active	Not Active	Not Active
